The target in this experiment is T1, human Cystic Fibrosis Transmembrane Conductance Regulator (CFTR) harboring the ΔF508 mutation (Homo sapiens, UniProt P13569, DEL508-508).
T1 construct: expressed in transfected cells; host or cells: H441 carcinoma line (G418 selection)
The experiment can be described thus: H441 cell Emax and EC50: HRP-tagged ΔF508-CFTR cell surface luminescence assay. The class given is cell-based. To be noted: H441 cells expressing ΔF508-CFTR-HRP, 27° C., two nights; for EC50: 15-point dose-response, top 24.5 μM; for Emax: NCI-H441, % of maximum VX809 signal. From the text:
Two cell lines were used, the H441 carcinoma line and the CFHBE41o-(41o-) human bronchial epithelial line. Both cell lines expressed human Cystic Fibrosis Transmembrane Conductance Regulator (CFTR) harboring the ΔF508 mutation and with an in-frame fusion in CFTR extracellular loop 4 of Horse Radish Peroxidase (HRP) under control of the CMV promoter. In the presence of the HRP tag, ΔF508-CFTR transported to the cell surface was detectable upon addition of an HRP substrate (Luminata Forte). Both cell types were cultivated at 37° C. with CO2.
For both cell types, the medium was changed every other day unless the culture was at low % confluence. Cells were used for the assays at ˜75% confluence.
To a polypropylene (PP) 384-well plate, 15 μls DMSO was added to all wells in columns 1-22 and 24 (low Control). 15 μls of 260 μM VX809 (Lumacaftor), Selleckchem S1565, was added to column 23 wells (high Control). 15 μls of 10 mM test compound or VX809 (control) were added to wells of row A. Serial dilutions of Row A compound were performed 2×15 μls in rows A through O (15-point).
A PP, 384-well plate containing the appropriate cell culture medium was prepared for each assay plate with 100 μls per well. For the doxycycline-induced 41o-cells, doxycycline for both the assay plate and the medium dilution plate was added at 0.0005 mg/ml to the medium.
Both cell lines were plated for the assay at 30 uls per 384-well at 3.4×10^e5 cells per ml (˜10K cells/well). H441 cells were plated on opaque, white, Corning plate 3704. 41o-cells were plated on collagen-coated opaque, white, Corning plate 356665. For 41o-cells, doxycycline was added to the medium.
Using FX (Beckman) protocol, 10 uls diluted compound or medium was added per well to the Assay Plate as: 2 μls DMSO Dilution plate well is diluted in 100 uls of the Medium Dilution Plate well, mixed, and 10 uls is transferred to the Assay Plate.
The final assay dilution series is 24.5, 12.3, 6.1, 3.1, 1.5, 0.8, 0.4, 0.2, 0.1, 0.05, 0.02, 0.01, 0.006, 0.003, 0.001 and 0 μM. The 41o-assay plates were incubated at 37° C. w/CO2, the H441 assay plates were incubated at 27° C. w/CO2, each overnight for two nights.
After being brought to room temperature, the assay plate liquid was removed. 30 μls of Luminata Forte (Millipore ELLUF0100) was added per well and incubated at room temperature for 10 min. The plates were then read on a Topcount, protocol LumiMatti (CPS, luminescence). The data was analyzed for % of maximum, maximum VX809 signal, and EC50 using Pearl and SPEED tools.

We go through 30 molecules from patent US12637414B2, “Arylamides and methods of use thereof” (Genzyme Corporation, priority 2019, dated 2026).

T1 sequence (P13569 with tags, fused parts or gaps DEL508-508): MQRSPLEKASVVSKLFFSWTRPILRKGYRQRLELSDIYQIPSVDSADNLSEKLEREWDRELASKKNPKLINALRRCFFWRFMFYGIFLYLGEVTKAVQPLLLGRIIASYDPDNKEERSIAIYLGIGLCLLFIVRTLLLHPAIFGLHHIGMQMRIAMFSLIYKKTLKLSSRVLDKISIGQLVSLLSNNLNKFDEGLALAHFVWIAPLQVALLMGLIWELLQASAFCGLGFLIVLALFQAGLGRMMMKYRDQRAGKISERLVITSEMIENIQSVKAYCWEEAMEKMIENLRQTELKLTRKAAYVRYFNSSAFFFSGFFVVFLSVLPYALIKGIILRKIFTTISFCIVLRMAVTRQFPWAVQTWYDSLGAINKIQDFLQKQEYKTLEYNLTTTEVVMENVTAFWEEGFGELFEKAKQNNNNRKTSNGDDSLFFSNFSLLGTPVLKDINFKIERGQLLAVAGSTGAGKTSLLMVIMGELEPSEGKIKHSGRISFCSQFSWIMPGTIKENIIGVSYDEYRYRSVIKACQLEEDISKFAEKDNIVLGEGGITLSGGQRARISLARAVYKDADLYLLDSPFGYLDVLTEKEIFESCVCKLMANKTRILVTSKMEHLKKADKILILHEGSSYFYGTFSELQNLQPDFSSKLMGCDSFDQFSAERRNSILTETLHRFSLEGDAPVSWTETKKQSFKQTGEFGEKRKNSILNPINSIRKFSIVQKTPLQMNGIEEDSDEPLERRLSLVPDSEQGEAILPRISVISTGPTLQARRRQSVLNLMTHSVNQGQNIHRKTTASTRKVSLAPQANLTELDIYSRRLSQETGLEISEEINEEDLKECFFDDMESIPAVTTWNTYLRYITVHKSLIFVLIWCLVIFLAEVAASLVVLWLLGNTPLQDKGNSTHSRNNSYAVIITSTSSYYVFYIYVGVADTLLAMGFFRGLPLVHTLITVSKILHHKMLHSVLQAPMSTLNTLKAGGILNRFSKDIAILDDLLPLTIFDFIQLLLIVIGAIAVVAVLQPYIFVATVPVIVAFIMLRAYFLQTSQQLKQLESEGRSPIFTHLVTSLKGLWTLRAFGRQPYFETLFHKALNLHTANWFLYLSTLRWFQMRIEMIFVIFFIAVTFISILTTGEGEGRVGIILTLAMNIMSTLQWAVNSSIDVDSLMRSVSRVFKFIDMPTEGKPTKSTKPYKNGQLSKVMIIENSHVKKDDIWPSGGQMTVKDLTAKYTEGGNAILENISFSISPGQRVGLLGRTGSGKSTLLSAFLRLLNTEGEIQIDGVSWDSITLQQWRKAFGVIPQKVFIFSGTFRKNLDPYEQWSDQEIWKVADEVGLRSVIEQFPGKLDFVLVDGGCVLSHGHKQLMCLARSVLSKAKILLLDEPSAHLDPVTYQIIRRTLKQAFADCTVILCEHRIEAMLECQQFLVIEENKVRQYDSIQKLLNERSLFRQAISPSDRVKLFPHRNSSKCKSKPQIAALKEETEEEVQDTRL

What is called EC50 is the concentration at which the effect is half-maximal. As usually defined, the Emax is the maximal effect, on the per cent scale that the assay sets. In the case of `Cc1ccc2ccc(C(=O)N[C@H](C(=O)O)C34CC5CC(CC(C5)C3)C4)c(OCc3ccc(C(F)(F)F)cc3)c2c1` [compound 18], the EC50 was determined as 2.18 µM and the Emax was found to be 370%.

As to `O=C(N[C@H](C(=O)O)C12CC3CC(CC(C3)C1)C2)c1ccc2ccccc2c1NCc1ccc(SC(F)(F)F)cc1` [compound 123, (2S)-2-(1-adamantyl)-2-[[1-[[4-(trifluoromethylsulfanyl)phenyl]methylamino]naphthalene-2-carbonyl]amino]acetic acid], a half-maximal response (EC50) required 0.278 µM and the Emax was 51.9%. The matching figures for `CC12CC3(C)CC(C)(C1)CC(C(NC(=O)c1ccc4ccccc4c1OCc1ccc(OC(F)(F)F)cc1)C(=O)O)(C2)C3` (centres unmarked) [compound 82]: 0.201 µM and 304%. The matching figures for `O=C(N[C@H](C(=O)O)C12CC3CC(CC(C3)C1)C2)c1sc2ccccc2c1OCc1ccc(C(F)(F)F)cc1` [compound 15]: 0.328 µM and 158%. The matching figures for `O=C(N[C@H](C(=O)O)C12CC3CC(CC(O)(C3)C1)C2)c1ccc2cc(F)ccc2c1OCC1CCC(F)(F)CC1` [compound 21]: 4.06 µM and 32.5%. Regarding `O=C(N[C@H](C(=O)O)C12CC3CC(CC(O)(C3)C1)C2)c1ccc2cc(F)ccc2c1OCc1ccc(OC(F)(F)F)cc1` [compound 46], the Emax turned out to be 3.8%. For the molecule `O=C(N[C@H](C(=O)O)C12CC3CC(CC(C3)C1)C2)c1ccc2ccccc2c1OCc1ccc(S(=O)(=O)C(F)(F)F)cc1` [compound 61], a half-maximal effect (EC50) was put at 0.446 µM and the Emax is 100%. In the same order, the values of `O=C(N[C@H](C(=O)O)C12CC3CC(CC(C3)C1)C2)c1ccc2sccc2c1OCc1ccc(OC(F)(F)F)cc1` [compound 111, (2S)-2-(1-adamantyl)-2-[[4-[[4-(trifluoromethoxy)phenyl]methoxy]benzothiophene-5-carbonyl]amino]acetic acid] are 0.261 µM and 165%. The matching figures for `O=C(N[C@H](C(=O)O)C12CC3CC(CC(C3)C1)C2)c1ccc2cccnc2c1OCc1nc2ccccc2s1` [compound 51]: 1.6 µM and 206%.

Turning to `O=C(N[C@H](C(=O)O)C12CC3CC(CC(OCCF)(C3)C1)C2)c1ccc2cc(F)ccc2c1OCc1ccc(C(F)(F)F)cc1` [compound 25], a half-maximal response (EC50) required 0.228 µM and the Emax stood at 106%. In the same order, the values of `O=C(N[C@H](C(=O)O)C12CC3CC(CC(Br)(C3)C1)C2)c1ccc2ccccc2c1OCc1ccc(C(F)(F)F)cc1` [compound 54] are 0.153 µM and 147%. The matching figures for `O=C(N[C@H](C(=O)O)C12CC3CC(CC(O)(C3)C1)C2)c1ccc2cc(F)ccc2c1OCc1ccc(S(F)(F)(F)(F)F)cc1` [compound 50]: 2.17 µM and 76.4%. The matching figures for `O=C(N[C@H](C(=O)O)C12CC3CC(CC(O)(C3)C1)C2)c1ccc2cc(F)ccc2c1OCc1ccc(C(F)(F)F)cc1` [compound 33]: 0.755 µM and 100%. Consider `O=C(N[C@H](C(=O)O)C12CC3CC(CC(C3)C1)C2)c1sc2ccccc2c1OCc1ccc(Cl)c(Cl)c1` [compound 24], for which the EC50 was determined as 0.726 µM and the Emax is 159%.

As for `CN(Cc1ccc(C(F)(F)F)cc1)c1c(CC(=O)N[C@H](C(=O)O)C23CC4CC(CC(C4)C2)C3)ccc2ccccc12` [compound 134, (2S)-2-(1-adamantyl)-2-[[2-[1-[methyl-[[4-(trifluoromethyl)phenyl]methyl]amino]-2-naphthyl]acetyl]amino]acetic acid], the Emax was -17.5%. For `O=C(N[C@H](C(=O)O)C12CC3CC(CC(C3)C1)C2)c1ccc2sccc2c1OCC1CCC(F)(F)CC1` [compound 106, (2S)-2-(1-adamantyl)-2-[[4-[(4,4-difluorocyclohexyl)methoxy]benzothiophene-5-carbonyl]amino]acetic acid], the 50% effective concentration (EC50) was found to be 3.62 µM and the Emax is 156%. In the same order, the values of `O=C(N[C@H](C(=O)O)C12CC3CC(Cl)(CC(Cl)(C3)C1)C2)c1ccc2ccccc2c1NCc1ccc(SC(F)(F)F)cc1` [compound 130, (2S)-2-(3,5-dichloro-1-adamantyl)-2-[[1-[[4-(trifluoromethylsulfanyl)phenyl]methylamino]naphthalene-2-carbonyl]amino]acetic acid] are 0.477 µM and 60.6%. In the same order, the values of `O=C(NC(C(=O)O)C12CC3CC(CC(O)(C3)C1)C2)c1ccc2ccccc2c1OCc1ccc(C(F)(F)F)cc1` (centres unmarked) [compound 79] are 1.03 µM and 137%.

Regarding `O=C(N[C@H](C(=O)O)C12CC3CC(CC(C3)C1)C2)c1ccc2ccccc2c1OCc1ccc(OC(F)F)cc1` [compound 78], the EC50 was not below 24.5 µM and the Emax is 7.8%. The matching figures for `O=C(N[C@H](C(=O)O)C12CC3CC(CC(C3)C1)C2)c1ccc2sccc2c1OCc1ccc(C(F)(F)F)cc1` [compound 112, (2S)-2-(1-adamantyl)-2-[[4-[[4-(trifluoromethyl)phenyl]methoxy]benzothiophene-5-carbonyl]amino]acetic acid]: 0.36 µM and 190%.

In the case of `O=C(N[C@H](C(=O)O)C12CC3CC(CC(O)(C3)C1)C2)c1ccc2sccc2c1OCc1ccc(C(F)(F)F)cc1` [compound 105, (2S)-2-(3-hydroxy-1-adamantyl)-2-[[4-[[4-(trifluoromethyl)phenyl]methoxy]benzothiophene-5-carbonyl]amino]acetic acid], the EC50 turned out to be 3.55 µM and the Emax was 150%.

Regarding `CC12CC3(C)CC(C)(C1)CC(C(NC(=O)c1ccc4ccccc4c1OCc1ccc(C(F)(F)C(F)(F)F)cc1)C(=O)O)(C2)C3` (centres unmarked) [compound 76], the EC50 came to 0.212 µM and the Emax came to 196%.

Regarding `O=C(N[C@H](C(=O)O)C12CC3CC(CC(C3)C1)C2)c1ccc2cccnc2c1OCc1ccc(C(F)(F)F)cc1` [compound 41], the response was half-maximal at 0.468 µM (EC50) and the Emax turned out to be 173%. On to `O=C(N[C@H](C(=O)O)C12CC3CC(CC(C3)C1)C2)c1ccc2cc(F)ccc2c1OCc1ccc(OC(F)(F)F)cc1` [compound 88], for which the Emax was -9.7%.

Turning to `CC(C)OC(=O)[C@@H](NC(=O)c1ccc2ccccc2c1OCc1ccc(C(F)(F)F)cc1)C12CC3CC(CC(C3)C1)C2` [compound 74], the Emax worked out at 4%. Consider `O=C(N[C@H](C(=O)O)C12CC3CC(CC(C3)C1)C2)c1ccc2sccc2c1OCc1ccc(S(F)(F)(F)(F)F)cc1` [compound 114], for which the EC50 worked out at 0.465 µM and the Emax was found to be 119%. `O=C(N[C@H](C(=O)O)C12CC3CC(CC(C3)C1)C2)c1ccc2occc2c1OCc1ccc(Cl)c(Cl)c1` [compound 120, (2S)-2-(1-adamantyl)-2-[[4-[(3,4-dichlorophenyl)methoxy]benzofuran-5-carbonyl]amino]acetic acid]: the midpoint of the response, the EC50, lay at 0.265 µM and the Emax is 141%. Take `O=C(N[C@H](C(=O)O)C12CC3CC(CC(O)(C3)C1)C2)c1ccc2sccc2c1OCC1CCC(F)(F)CC1` [compound 108, (2S)-2-[[4-[(4,4-difluorocyclohexyl)methoxy]benzothiophene-5-carbonyl]amino]-2-(3-hydroxy-1-adamantyl)acetic acid]: a half-maximal effect (EC50) was put at 11.4 µM and the Emax was determined as 78.4%.

Regarding `O=C(N[C@H](C(=O)O)C12CC3(Cl)CC(Cl)(CC(Cl)(C3)C1)C2)c1ccc2ccccc2c1NCc1ccc(SC(F)(F)F)cc1` [compound 127, (2S)-2-(3,5,7-trichloro-1-adamantyl)-2-[[1-[[4-(trifluoromethylsulfanyl)phenyl]methylamino]naphthalene-2-carbonyl]amino]acetic acid], the midpoint of the response, the EC50, lay at 0.625 µM and the Emax was found to be 75.5%.

In the case of `O=C(N[C@H](C(=O)O)C12CC3CC(CC(C3)C1)C2)c1ccc2ccccc2c1OCc1nc2ccccc2s1` [compound 65], the response was half-maximal at 1.32 µM (EC50) and the Emax was 198%.
